Counter-ions that a name gives are not always drawn.
Assays:
[1] = target: T1, calcium channel (Cavia porcellus, UniProt A0A286X7I0); assay: Bond to the calcium channel: displacement of the specific (S)-^3H-devapamil bond in membrane preparations of guinea pig skeletal muscle; type: binding; settings: guinea pig skeletal muscle membranes; 1 nM (S)-^3H-devapamil; 60 minutes, room temperature; 10^-10 to 10^-6 M test substance
T1 construct: membrane preparations of guinea pig skeletal muscle; from tissue; host or cells: guinea pig skeletal muscle, membrane preparation
Procedure: (a) Bond to the calcium channel Displacement of the specific (S)-^3 H-devapamil bond in membrane preparations of guinea pig skeletal muscle
(§1) Membrane homogenate was incubated for 60 minutes at room temperature with increasing concentrations (from 10^-10 to 10^-6 M) of test substance and a fixed concentration of 1 nM of radioligand ((S)-^3 H-devapamil or ^3 H-ketanserine). The bound and the free radioligand were separated by filtration over a glass fiber filter, and the amount of radioligand retained on the filter was determined by liquid scintillation measurement. 2 tests with 3 batches were carried out.
(§2) The competition constants (Ki values in nM) were calculated by nonlinear regression analysis on an IBM computer using the program Ligand from Munson and Rodbard (Analytical Biochemistry 107 (1980), 220).

[2] = target: T2, serotonin-S2-receptor (Rattus norvegicus, UniProt P14842); assay: Bond to the serotonin-S2-receptor: displacement of the specific ^3H-ketanserine bond in membrane preparations of cerebral cortex of the rat; type: binding; settings: rat cerebral cortex membranes; 1 nM ^3H-ketanserine; 60 minutes, room temperature; 10^-10 to 10^-6 M test substance
T2 construct: membrane preparations of cerebral cortex of the rat; from tissue; host or cells: rat cerebral cortex, membrane preparation
Procedure: (b) Bond to the serotonin-S2 -receptor
Displacement of the specific ^3 H-ketanserine bond in membrane preparations of cerebral cortex of the rat
as §1, §2

T2 sequence (P14842 whole entry): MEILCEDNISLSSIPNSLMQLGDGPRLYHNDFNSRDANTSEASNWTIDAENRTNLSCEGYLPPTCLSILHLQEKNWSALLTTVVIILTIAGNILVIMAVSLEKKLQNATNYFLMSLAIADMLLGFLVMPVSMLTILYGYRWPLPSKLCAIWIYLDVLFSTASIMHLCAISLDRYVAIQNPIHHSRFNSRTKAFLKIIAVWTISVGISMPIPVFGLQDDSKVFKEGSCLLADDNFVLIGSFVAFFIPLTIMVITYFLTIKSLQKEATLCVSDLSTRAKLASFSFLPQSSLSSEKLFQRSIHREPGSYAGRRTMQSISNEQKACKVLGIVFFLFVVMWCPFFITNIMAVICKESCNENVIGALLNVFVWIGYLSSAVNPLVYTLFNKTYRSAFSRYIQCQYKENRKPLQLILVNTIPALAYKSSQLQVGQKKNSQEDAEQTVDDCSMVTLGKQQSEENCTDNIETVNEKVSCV
T1 sequence (A0A286X7I0 1-1867): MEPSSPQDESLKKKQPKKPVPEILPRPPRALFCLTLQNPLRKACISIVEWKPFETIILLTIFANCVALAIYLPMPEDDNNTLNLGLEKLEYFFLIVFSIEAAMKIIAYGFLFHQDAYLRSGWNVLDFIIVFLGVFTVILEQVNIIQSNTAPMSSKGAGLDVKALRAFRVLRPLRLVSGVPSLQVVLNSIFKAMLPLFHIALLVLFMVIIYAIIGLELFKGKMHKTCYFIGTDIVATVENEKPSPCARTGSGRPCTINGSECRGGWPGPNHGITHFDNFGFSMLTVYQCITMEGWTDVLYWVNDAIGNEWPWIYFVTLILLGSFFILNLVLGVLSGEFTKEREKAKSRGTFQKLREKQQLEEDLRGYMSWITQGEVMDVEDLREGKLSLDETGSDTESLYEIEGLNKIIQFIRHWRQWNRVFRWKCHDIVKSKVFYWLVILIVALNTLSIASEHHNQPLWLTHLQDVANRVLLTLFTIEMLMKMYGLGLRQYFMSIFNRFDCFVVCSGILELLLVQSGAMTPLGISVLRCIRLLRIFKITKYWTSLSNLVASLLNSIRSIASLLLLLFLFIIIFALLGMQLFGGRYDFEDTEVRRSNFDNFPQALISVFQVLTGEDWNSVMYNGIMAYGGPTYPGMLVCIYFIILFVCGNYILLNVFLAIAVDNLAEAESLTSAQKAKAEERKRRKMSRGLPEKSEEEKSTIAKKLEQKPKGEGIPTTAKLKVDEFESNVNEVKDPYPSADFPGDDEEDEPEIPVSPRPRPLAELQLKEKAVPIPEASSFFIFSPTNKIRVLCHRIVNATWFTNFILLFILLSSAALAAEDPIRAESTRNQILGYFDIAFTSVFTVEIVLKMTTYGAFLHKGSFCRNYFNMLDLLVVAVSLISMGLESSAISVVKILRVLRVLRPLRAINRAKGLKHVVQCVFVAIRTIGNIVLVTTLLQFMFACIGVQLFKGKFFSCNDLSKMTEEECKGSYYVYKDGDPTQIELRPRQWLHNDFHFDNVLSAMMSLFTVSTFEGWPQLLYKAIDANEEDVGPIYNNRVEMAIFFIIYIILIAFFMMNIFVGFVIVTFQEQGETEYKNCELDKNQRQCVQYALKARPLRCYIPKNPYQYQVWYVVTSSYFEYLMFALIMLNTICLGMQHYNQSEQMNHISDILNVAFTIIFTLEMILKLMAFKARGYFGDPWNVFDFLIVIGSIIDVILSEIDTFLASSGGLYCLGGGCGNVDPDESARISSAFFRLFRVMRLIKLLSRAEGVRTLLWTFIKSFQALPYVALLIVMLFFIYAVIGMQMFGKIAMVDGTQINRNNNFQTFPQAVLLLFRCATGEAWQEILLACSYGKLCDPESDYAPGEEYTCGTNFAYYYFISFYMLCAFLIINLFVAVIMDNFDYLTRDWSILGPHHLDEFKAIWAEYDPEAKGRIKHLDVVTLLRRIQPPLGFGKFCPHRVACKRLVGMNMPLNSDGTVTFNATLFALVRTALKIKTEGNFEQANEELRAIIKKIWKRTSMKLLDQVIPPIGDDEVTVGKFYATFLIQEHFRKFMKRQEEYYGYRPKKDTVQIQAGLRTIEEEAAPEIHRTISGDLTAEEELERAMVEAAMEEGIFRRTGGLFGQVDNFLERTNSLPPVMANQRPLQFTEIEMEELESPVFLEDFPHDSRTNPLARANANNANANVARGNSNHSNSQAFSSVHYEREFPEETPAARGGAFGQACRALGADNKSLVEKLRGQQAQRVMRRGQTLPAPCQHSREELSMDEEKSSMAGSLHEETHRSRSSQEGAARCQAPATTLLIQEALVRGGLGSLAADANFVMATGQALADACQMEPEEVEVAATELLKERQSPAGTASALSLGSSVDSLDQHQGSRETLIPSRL

Row | SMILES | Ki [1] [nM] | Ki [2] [nM]
1 | COc1cccc(C(C#N)(CCCN(C)CCC2CCCCC2)C(C)C)c1 (stereo not drawn) [Example 1, 5-[N-methyl-N-(2-cyclohexyl)-ethyl]-amino-2-(3-methoxyphenyl)-2-isopropylvaleronitrile] | 16.2 | 5
2 | CCCCCCCCCCN(C)CCCC(C#N)(c1cc(OC)c(OC)c(OC)c1)C(C)C (stereo not drawn) [Example 2, 5-[N-methyl-N-(n-decyl)]-amino-2-(3,4,5-trimethoxyphenyl)-2-isopropylvaleronitrile] | 19.1 | 21
3 | CCCCCCCCN(C)CCCC(C#N)(c1cc(OC)c(OC)c(OC)c1)C(C)C (stereo not drawn) [Example 4, 5-[N-methyl-N-(n-octyl)]-amino-2-(3,4,5-trimethoxyphenyl)-2-isopropylvaleronitrile] | 5.2 | 26.4
4 | CCOc1cc(OCC)cc(C(C#N)(CCCN(C)CCC2CCCCC2)C(C)C)c1 (stereo not drawn) [Example 5, 5-[N-methyl-N-(2-cyclohexyl)-ethyl]-amino-2-(3,5-diethoxyphenyl)-2-isopropylvaleronitrile] | 11.9 | 20
5 | CCCCCCCCN(C)CCC[C@@](C#N)(c1cc(OC)c(OC)c(OC)c1)C(C)C [Example 6, (S)-5-[N-methyl-N-(n-octyl)]-amino-2-(3,4,5-trimethoxyphenyl)-2-isopropylvaleronitrile] | 2.9 | 11.2
6 | COc1cc(OC)cc(C(C#N)(CCCN(C)CCC2CCCCC2)C(C)C)c1 (stereo not drawn) [Example 10, 5-[N-methyl-N-(2-cyclohexyl)-ethyl]-amino-2-(3,5-dimethoxyphenyl)-2-isopropylvaleronitrile] | 9.2 | 2.8
7 | COc1cc(C(C#N)(CCCN(C)CCC2CCCCC2)C(C)C)cc(OC)c1OC (stereo not drawn) [Example 11, 5-[N-methyl-N-(2-cyclohexyl)-ethyl]-amino-2-(3,4,5-trimethoxyphenyl)-2-isopropylvaleronitrile] | 5.8 | 10.7
8 | COc1cc([C@](C#N)(CCCN(C)CCC2CCCCC2)C(C)C)cc(OC)c1OC [Example 13, (S)-5-[N-methyl-N-(2-cyclohexyl)-ethyl]-amino-2-(3,4,5-trimethoxyphenyl)-2-isopropylvaleronitrile hydrochloride] | 3.4 | 3.3
9 | CCCCC=CCCN(C)CCCC(C#N)(c1cc(OC)c(OC)c(OC)c1)C(C)C (stereo not drawn) [Example 15, 5-[N-methyl-N-(n-octen-3-yl)]-amino-2-(3,4,5-trimethoxyphenyl)-2-isopropylvaleronitrile hydrochloride] | 7.5 | 6.8
10 | COc1ccc(C(C#N)(CCCN(C)CCC2CCCCC2)C(C)C)c([N+](=O)[O-])c1OC (stereo not drawn) [Example 16, 5-[N-methyl-N-(2-cyclohexyl)ethyl]-amino-2-(2-nitro-3,4-dimethoxyphenyl)-2-isopropylvaleronitrile] | 34.2 | 3.6
11 | CC(C)C(C#N)(CCCN(C)CCC1=CCCCC1)c1ccccc1 (stereo not drawn) [Example 18, 5-(N-methyl-N-[2-(cyclohexen-1-yl)ethyl]}-amino-2-phenyl-2-isopropylvaleronitrile] | 36.7 | 4
12 | CCCCCCN(C)CCCC(C#N)(c1cc(OC)c(OC)c(OC)c1)C(C)C (stereo not drawn) [Example 23, 5-[N-methyl-N-(n-hexyl)]-amino-2-(3,4,5-trimethoxyphenyl)-2-isopropylvaleronitrile hydrochloride] | 11.6 | 48.4
13 | CCCCCCN(C)CCC[C@@](C#N)(c1cc(OC)c(OC)c(OC)c1)C(C)C [Example 24, (S)-5-[N-methyl-N-(n-hexyl)]-amino-2-(3,4,5-trimethoxyphenyl)-2-isopropylvaleronitrile hydrochloride] | 8.6 | 21.1
14 | COc1ccc(CCN(C)CCCC(C#N)(c2ccc(OC)c(OC)c2)C(C)C)cc1OC (stereo not drawn) [Verapamil, verapamil, reference compound] | – | 177
